Experimental data as given in the supplement of paper PMC5844555.

What was measured:
Experiment in all cases: 3' UTR reporter interaction score (median-centred robust z-score of log2 firefly/Renilla activity); higher = less repression of the 3' UTR reporter
Conditions in all cases: HEK293T; 48 h
MYT1L = tested on: MYT1L
Procedure, shortened: (§1)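 HEK293T cells were seeded at 10,000 per well in 96-well plates and co-transfected with DharmaFECT Duo, using 100 ng of a firefly luc2P reporter carrying the gene's 3' UTR, 20 ng of Renilla pRL-TK control and 2.5 pmol of miRNA mimic. Both luciferase activities were measured 48 h after transfection. The interaction score is the log-transformed firefly/Renilla ratio, converted to a per-plate robust z-score from the median and median absolute deviation and then median-centred per miRNA, with more negative values indicating interaction. Scores were averaged across at least two independent screens.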

FBXW7 = tested on: FBXW7
Procedure, shortened: as §1

NOTCH1 = tested on: NOTCH1
Procedure, shortened: as §1

PHOX2B = tested on: PHOX2B
Procedure, shortened: as §1

TP53 = tested on: TP53
Procedure, shortened: as §1

BRCA2 = tested on: BRCA2
Procedure, shortened: as §1

MYCN = tested on: MYCN
Procedure, shortened: as §1

HRAS = tested on: HRAS
Procedure, shortened: as §1

EZH2 = tested on: EZH2
Procedure, shortened: as §1

MYB = tested on: MYB
Procedure, shortened: as §1

PHF6 = tested on: PHF6
Procedure, shortened: as §1

RB1 = tested on: RB1
Procedure, shortened: as §1

MYC = tested on: MYC
Procedure, shortened: as §1

ZEB2 = tested on: ZEB2
Procedure, shortened: as §1

Sequence	3' UTR reporter interaction score (MYT1L)	3' UTR reporter interaction score (FBXW7)	3' UTR reporter interaction score (NOTCH1)	3' UTR reporter interaction score (PHOX2B)	3' UTR reporter interaction score (TP53)	3' UTR reporter interaction score (BRCA2)	3' UTR reporter interaction score (MYCN)	3' UTR reporter interaction score (HRAS)	3' UTR reporter interaction score (EZH2)	3' UTR reporter interaction score (MYB)	3' UTR reporter interaction score (PHF6)	3' UTR reporter interaction score (RB1)	3' UTR reporter interaction score (MYC)	3' UTR reporter interaction score (ZEB2)
AGGGAUCGCGGGCGGGUGGCGGCCU	-0.194	-0.971	0.433	-1.25	0.628	0.916	-0.927	-0.484	-0.298	0.376	2.46	-0.0484	-0.321	-0.0578
AGCUACAUUGUCUGCUGGGUUUC	-0.38	1.22	0.703	0.602	0.277	-0.328	0.451	0.0503	0.0119	-4.52	-0.314	-3.13	0.427	-0.124
AACCCGUAGAUCCGAACUUGUG	-0.266	-0.349	-0.555	-4.05	1.86	0.951	-0.886	0.79	0.142	0.491	-0.96	0.915	0.114	-1.13
ACUGCCCUAAGUGCUCCUUCU	0.161	0.408	-0.46	0.63	0.48	-0.325	1.21	-0.229	0.0537	-0.35	-0.374	-0.147	0.276	-0.687
AUUACAUGGCCAAUCUC	-0.267	0.611	0.461	1.43	0.293	-0.25	0.193	-0.228	-0.208	0.0435	-0.0228	-1.24	0.104	-0.413
UUUUGCACCUUUUGGAGUGAA	-0.182	-3.44	1.27	-0.86	0.767	0.467	0.905	-0.429	-0.000424	1	0.706	-1.86	0.393	-4.16
CCUCUAGAUGGAAGCACUGUCU	-0.377	-0.485	0.00559	-0.512	-0.0691	1.43	-0.452	0.49	0.875	1.05	0.44	1.24	-0.352	0.763
UAUGUAAUAUGGUCCACAUCUU	1.41	0.706	0.765	0.805	-0.793	-0.619	0.254	-0.0539	-0.223	0.474	-0.945	0.421	0.455	-1.16
GGAGAAAUUAUCCUUGGUGUGU	0.261	0.978	0.146	1.16	0.00656	-0.364	-0.523	-0.545	-0.15	-0.159	0.937	0.166	-1.2	-0.311
UAAUACUGCCGGGUAAUGAUGG	1.25	-0.707	-0.992	-0.44	0.205	-0.155	-0.263	-0.939	0.453	-1.24	0.321	0.254	0.778	-2.81
UGCUUCCUUUCAGAGGGU	0.521	0.46	0.215	-0.331	-1.13	-0.366	0.0627	-0.697	0.85	1.13	-0.232	-0.583	0.327	-0.357
UAUGCAUUGUAUUUUUAGGUCC	-0.778	-0.388	0.872	-2.52	-0.83	0.674	-0.281	0.558	0.224	-1.29	-1.28	0.308	0.248	-1.13
UAAAUCCCAUGGUGCCUUCUCCU	-0.319	-0.794	0.16	0.298	0.00864	0.0242	1.04	-0.598	0.24	-0.131	1.14	0.989	0.0891	-0.698
AGGCACGGUGUCAGCAGGC	0.478	0.393	0.0125	0.32	-0.839	-0.203	-0.274	-0.153	0.629	0.171	0.283	0.0845	0.509	-0.659
CUUGGUUCAGGGAGGGUCCCCA	0.48	-2.49	-0.824	0.231	-0.22	-0.342	0.421	-0.543	0.379	0.238	0.112	-0.223	-0.0193	1.64
UCCCACGUUGUGGCCCAGCAG	-0.668	-0.0713	0.591	-0.461	0.863	0.793	-0.504	-0.421	0.303	-0.00342	0.0798	-2.41	0.28	-0.736
UUGUACAUGGUAGGCUUUCAUU	-0.141	-0.171	0.647	0.723	-0.89	-0.0352	1.27	0.289	0.0583	1.15	-1.11	0.635	1.21	-1.84

Sequence	3' UTR reporter interaction score (MYT1L)	3' UTR reporter interaction score (FBXW7)	3' UTR reporter interaction score (NOTCH1)	3' UTR reporter interaction score (PHOX2B)	3' UTR reporter interaction score (TP53)	3' UTR reporter interaction score (BRCA2)	3' UTR reporter interaction score (MYCN)	3' UTR reporter interaction score (HRAS)	3' UTR reporter interaction score (EZH2)	3' UTR reporter interaction score (MYB)	3' UTR reporter interaction score (PHF6)	3' UTR reporter interaction score (RB1)	3' UTR reporter interaction score (MYC)	3' UTR reporter interaction score (ZEB2)
CAGUAACAAAGAUUCAUCCUUGU	-0.326	-0.152	-0.945	-1.19	-0.52	-0.621	1.32	0.555	0.69	0.361	-3.72	-3.18	-0.308	0.308
UGUCACUCGGCUCGGCCCACUAC	0.664	0.218	0.551	-0.663	0.457	1.08	0.184	-0.561	0.621	0.0813	-0.284	-0.766	-0.146	-1.79
UGAGGUAGUAAGUUGUAUUGUU	0.292	0.412	0.263	-0.47	-0.165	0.117	-4.78	0.519	-3.5	0.37	-0.107	0.186	-2.7	0.389
GUGCAUUGUAGUUGCAUUG	-0.399	0.387	0.471	1.4	0.444	-0.383	-0.218	-0.432	-0.326	0.56	-0.0198	-0.339	-0.88	-0.884
AGUAUUCUGUACCAGGGAAGGU	-1.07	1.75	0.758	0.0656	0.107	0.623	0.786	-0.0345	-2.56	-0.25	-1.2	-0.386	0.255	-1.77
GAAAACAGCAAUUACCUUUGCA	-0.261	0.0135	-1.34	0.0564	-0.0426	0.212	0.734	-0.7	0.37	-1.17	-0.427	0.347	-0.413	0.263
UAAGUGCUUCCAUGUUUUAGUAG	-1.12	0.557	1.36	-0.86	0.0485	-0.649	0.56	0.314	-0.765	-0.833	0.487	0.351	-0.0722	1.24
GUGCCUACUGAGCUGAUAUCAGU	-1.1	0.26	-1.95	1.18	0.396	0.244	0.559	-0.972	0.242	0.61	-1.31	0.454	0.239	-0.6
CGGGUGGAUCACGAUGCAAUUU	0.0585	0.899	0.128	-0.988	0.809	0.639	0.00745	-0.371	-0.645	-0.118	-0.0241	0.702	0.166	-1.87
CCCAGUGUUUAGACUAUCUGUUC	1.93	-0.738	-0.226	-0.251	-0.323	0.494	0.905	-0.315	-0.185	0.059	0.458	-0.794	0.186	0.476
AAGCAGCUGCCUCUGAGGC	-4.53	-2.92	-0.304	0.758	0.187	-0.823	0.924	-0.819	-1.03	-1.27	0.632	0.293	1.09	1.09
UCUGGCUCCGUGUCUUCACUCC	1.3	-0.481	-2.05	1.22	0.211	0.156	1.42	1.54	0.8	-1.3	-0.567	0.119	-0.629	1.83
UACAGUAGUCUGCACAUUGGUU	3.26	0.408	-0.605	-0.571	-1.16	0.551	0.292	-0.926	-0.827	-0.118	-0.669	2	0.385	1.83
UGGUGCGGAGAGGGCCCACAGUG	1.6	0.508	0.612	0.217	-0.894	-0.582	0.131	-0.688	-0.738	-0.475	0.575	0.451	-0.919	0.607
AAAGUGCUUCCUUUUAGAGGGUU	-0.468	1.34	0.779	0.533	-0.295	-0.282	-0.338	0.0494	-1.12	-0.903	0.00103	1.13	-0.227	0.894
UAACAGUCUCCAGUCACGGCC	1.02	0.973	-0.389	-0.145	-0.811	-0.504	0.167	-0.229	0.108	-1.89	-0.767	-2.21	-0.0995	1.77
CUCUAGAGGGAAGCACUUUCU	-0.138	-1.73	0.59	-1.07	-0.127	-0.166	-0.174	0.934	-0.021	1.78	-0.252	-0.897	0.565	1.31
